Converted amounts (≈) assume the structure as drawn.
Assays:
Bacillus anthracis Ames = assay: microbe, parasite or virus in culture; format: cell-based; conditions: 24 h, read-out: MIC, Bacillus anthracis Ames
[1] = tested on: Burkholderia mallei China 7; assay: microbe, parasite or virus in culture; format: cell-based; conditions: CHINA7, 24 h, read-out: MIC, Burkholderia mallei China 7
[2] = tested on: Burkholderia pseudomallei DD503; assay: microbe, parasite or virus in culture; format: cell-based; conditions: DD503, 24 h, read-out: MIC, Burkholderia pseudomallei DD503
[3] = tested on: Burkholderia pseudomallei K96243; assay: microbe, parasite or virus in culture; format: cell-based; conditions: K96243, 24 h, read-out: MIC, Burkholderia pseudomallei K96243
[4] = tested on: Burkholderia pseudomallei 1026b; assay: microbe, parasite or virus in culture; format: cell-based; conditions: 24 h, read-out: MIC, Burkholderia pseudomallei 1026b
[5] = tested on: Francisella tularensis SCHU S4; assay: microbe, parasite or virus in culture; format: cell-based; conditions: SCHUS4, 38 h, read-out: MIC, Francisella tularensis SCHU S4
Yersinia pestis CO92 = assay: microbe, parasite or virus in culture; format: cell-based; conditions: CO92, read-out: MIC, Yersinia pestis CO92
[6] = tested on: Acinetobacter baumannii NCTC 13420; assay: MIC, broth microdilution (CLSI) versus planktonic bacteria; format: cell-based; conditions: NCTC13420; Acinetobacter baumannii NCTC 13420; 16-20 h; mode of three independent experiments; read-out: MIC, Ab NCTC 13420
[7] = tested on: Acinetobacter baumannii ATCC 19606; assay: as above; format: cell-based; conditions: ATCC19606; Acinetobacter baumannii ATCC 19606; 16-20 h; mode of three independent experiments; read-out: MIC, Ab ATCC 19606
[8] = tested on: Enterobacter cloacae NCTC 13406; assay: as above; format: cell-based; conditions: NCTC13406; Enterobacter cloacae NCTC 13406; 16-20 h; mode of three independent experiments; read-out: MIC, Ecl NCTC 13406
[9] = tested on: Escherichia coli ATCC 25922; assay: as above; format: cell-based; conditions: ATCC25922; Escherichia coli ATCC 25922; 16-20 h; mode of three independent experiments; read-out: MIC, Ec ATCC 25922
E. coli ATCC BAA-2452 = assay: as above; format: cell-based; conditions: Escherichia coli ATCC BAA-2452; 16-20 h; mode of three independent experiments; read-out: MIC, Ec ATCC BAA 2452
E. coli NCTC 13476 = assay: as above; format: cell-based; conditions: NCTC13476; Escherichia coli NCTC 13476; 16-20 h; mode of three independent experiments; read-out: MIC, Ec NCTC 13476
E. coli MG1655 = assay: as above; format: cell-based, Escherichia coli; conditions: Escherichia coli, MG1655, read-out: MIC, Ec MG1655 WT
[10] = tested on: Haemophilus influenzae ATCC 49247; assay: as above; format: cell-based; conditions: ATCC49247; Haemophilus influenzae ATCC 49247; 16-20 h; mode of three independent experiments; read-out: MIC, Hi ATCC 49247
[11] = tested on: Pseudomonas aeruginosa ATCC 27853; assay: as above; format: cell-based; conditions: ATCC27853; Pseudomonas aeruginosa ATCC 27853; 16-20 h; mode of three independent experiments; read-out: MIC, Pa ATCC 27853
[12] = tested on: Staphylococcus aureus ATCC 29213; assay: as above; format: cell-based; conditions: ATCC29213; Staphylococcus aureus ATCC 29213; 16-20 h; mode of three independent experiments; read-out: MIC, Sa ATCC 29213
[13] = tested on: Enterococcus faecalis ATCC 29212; assay: as above; format: cell-based; conditions: ATCC29212, 16-20 h, mode of three independent experiments, read-out: MIC, Ef ATCC 29212
[14] = tested on: Enterococcus faecium ATCC 19434; assay: as above; format: cell-based; conditions: ATCC19434, 16-20 h, mode of three independent experiments, read-out: MIC, Efm ATCC 19434
[15] = tested on: fluoroquinolone-resistant Enterococcus faecium ATCC 700221; assay: as above; format: cell-based; conditions: ATCC700221, 16-20 h, mode of three independent experiments, read-out: MIC, Efm ATCC 700221
[16] = tested on: Streptococcus pneumoniae ATCC 49619; assay: as above; format: cell-based; conditions: ATCC49619; Streptococcus pneumoniae ATCC 49619; 16-20 h; mode of three independent experiments; read-out: MIC, Sp ATCC 49619
E. coli MG1655 S83L = format: cell-based, Escherichia coli; conditions: compared to the isogenic parent strain E. coli MG1655; S83L mutation on DNA gyrase subunit GyrA
E. coli MG1655 D87G = format: cell-based, Escherichia coli; conditions: compared to the isogenic parent strain E. coli MG1655; D87G mutation on DNA gyrase subunit GyrA
[17] = tested on: Gram-negative and Gram-positive bacterial strains; format: cell-based; conditions: strain panel of Table 1
[18] = tested on: human hepatic cell line (HepG2 ATCC HB-8065); assay: Human cell viability assay (CellTiter-Glo); conditions: Homo sapiens, HepG2, 24 h, read-out: IC50 (μg/mL) HepG2
[19] = tested on: Mycobacterium smegmatis ATCC 19420; assay: MIC, broth microdilution (CLSI) versus planktonic bacteria; format: cell-based; conditions: Mycolicibacterium smegmatis, ATCC19420, 16-20 h, mode of three independent experiments, read-out: MIC, Ms ATCC 19420
[20] = tested on: Neisseria meningitidis ATCC 13090; assay: as above; format: cell-based; conditions: ATCC13090, 16-20 h, mode of three independent experiments

| SMILES | MIC (Bacillus anthracis Ames) [µg/mL] | MIC [1] [µg/mL] | MIC [2] [µg/mL] | MIC [3] [µg/mL] | MIC [4] [µg/mL] | MIC [5] [µg/mL] | MIC [6] [µg/mL] | MIC [7] [µg/mL] | MIC [8] [µg/mL] | MIC [9] [µg/mL] | MIC (E. coli ATCC BAA-2452) [µg/mL] | MIC (E. coli NCTC 13476) [µg/mL] | MIC (E. coli MG1655) [µg/mL] | MIC [10] [µg/mL] | MIC [11] [µg/mL] | MIC [12] [µg/mL] | MIC [16] [µg/mL] | Fold increase in MIC, E. coli MG1655 S83L (E. coli MG1655 S83L) [fold] | Fold increase in MIC, E. coli MG1655 D87G (E. coli MG1655 D87G) [fold] | IC50 [18] [µg/mL] | also measured |
| --- | --- | --- | --- | --- | --- | --- | --- | --- | --- | --- | --- | --- | --- | --- | --- | --- | --- | --- | --- | --- | --- |
| C[C@H]1c2cccc(O)c2C(=O)C2=C(O)[C@]3(O)C(=O)C(C(N)=O)=C(O)[C@@H](N(C)C)[C@@H]3[C@@H](O)[C@@H]21 [DOX, doxycycline, reference compound] | < 1 | < 1 | 1 to 4 (≈ 2.25 to 9 µM) | 1 to 4 (≈ 2.25 to 9 µM) | 1 to 4 (≈ 2.25 to 9 µM) | < 1 |  |  |  |  |  |  |  |  |  |  |  |  |  |  | MIC (Yersinia pestis CO92): 1 to 4 µg/mL (≈ 2.25 to 9 µM) |
| COc1ccc2ccc(=O)n(CCCN[C@@H]3CC[C@@H]4[C@@H](C3)OC(=O)N4c3ccc4c(n3)NC(=O)CO4)c2n1 [Compound 76, 1-(3-{[(3aR,6R,7aR)-2-oxo-3-{3-oxo-2H,3H,4H-pyrido[3,2-b][1,4]oxazin-6-yl}-octahydro-1,3-benzoxazol-6-yl]amino}propyl)-7-methoxy-1,2-dihydro-1,8-naphthyridin-2-one] |  |  |  |  |  |  | < 1 | < 1 | < 1 | < 1 | < 1 | < 1 | < 1 | < 1 | < 1 | < 1 | < 1 | 2 | 2 | 10 to 100 (≈ 19.2 to 192 µM) | MIC [13]: < 1 µg/mL; MIC [14]: < 1 µg/mL; MIC [15]: < 1 µg/mL; activity against both Gram-negative and Gram-positive bacteria (in words) [17]: excellent activity |
| COc1ncc2ccc(=O)n(CCN[C@@H]3CC[C@@H]4[C@@H](C3)OC(=O)N4c3ccc4c(n3)NC(=O)CO4)c2n1 [Compound 2, (3aR,6R,7aR)-6-[(2-{2-methoxy-7-oxo-7H,8H-pyrido[2,3-d]pyrimidin-8-yl}ethyl)amino]-3-(3-oxo-2H,3H,4H-pyrido[3,2-b][1,4]oxazin-6-yl}-octahydro-1,3-benzoxazol-2-one] | < 1 | 1 to 4 (≈ 1.97 to 7.88 µM) | 1 to 4 (≈ 1.97 to 7.88 µM) | 1 to 4 (≈ 1.97 to 7.88 µM) | 1 to 4 (≈ 1.97 to 7.88 µM) | 1 to 4 (≈ 1.97 to 7.88 µM) | < 1 | < 1 | < 1 | < 1 | < 1 | 1 to 10 (≈ 1.97 to 19.7 µM) | < 1 | < 1 | 1 to 10 (≈ 1.97 to 19.7 µM) | < 1 | < 1 | 1 | 1 | > 100 | MIC [19]: < 1 µg/mL; MIC [20]: < 1 µg/mL; MIC (Yersinia pestis CO92): < 1 µg/mL |
| COc1ccc2ccc(=O)n(CCN[C@@H]3CC[C@@H]4[C@@H](C3)OC(=O)N4c3ccc4c(n3)NC(=O)CO4)c2n1 [Compound 1, 1-(2-{[(3aR,6R,7aR)-2-oxo-3-{3-oxo-2H,3H,4H-pyrido[3,2-b][1,4]oxazin-6-yl}-octahydro-1,3-benzoxazol-6-yl]amino}ethyl)-7-methoxy-1,2-dihydro-1,8-naphthyridin-2-one] |  |  |  |  |  |  | < 1 | < 1 | < 1 | < 1 | < 1 | < 1 | < 1 | < 1 | < 1 | < 1 | < 1 | 1 | 1 | > 100 | MIC [19]: < 1 µg/mL; MIC [20]: < 1 µg/mL; MIC [13]: < 1 µg/mL; MIC [14]: < 1 µg/mL; MIC [15]: < 1 µg/mL; activity against both Gram-negative and Gram-positive bacteria (in words) [17]: excellent activity |

— US10487093B2, “Heterocyclic compounds, in particular 2-oxo-4,4,5,5,6,6,7,7-octahydrobenzoxazole derivatives, and their use as antibacterial compounds” (priority 2016, dated 2019)
